# In US20100184673A1, “USE OF PARATHYROID HORMONE ( 1-34 ) AS ANTI-HIV AGENT” (priority 2007, published 2010):
# Test system: drug-resistant Mycobacterium tuberculosis
# Conditions: peptide 10 micrograms per ml, seven days
smiles,measurement,value
CC[C@H](C)[C@H](NC(=O)[C@H](CCC(=O)O)NC(=O)[C@H](CO)NC(=O)[C@@H](NC(=O)[C@@H](N)CO)C(C)C)C(=O)N[C@@H](CCC(N)=O)C(=O)N[C@@H](CC(C)C)C(=O)N[C@@H](CCSC)C(=O)N[C@@H](Cc1cnc[nH]1)C(=O)N[C@@H](CC(N)=O)C(=O)N[C@@H](CC(C)C)C(=O)NCC(=O)N[C@@H](CCCCN)C(=O)N[C@@H](Cc1cnc[nH]1)C(=O)N[C@@H](CC(C)C)C(=O)N[C@@H](CC(N)=O)C(=O)N[C@@H](CO)C(=O)N[C@@H](CCSC)C(=O)N[C@@H](CCC(=O)O)C(=O)N[C@@H](CCCN=C(N)N)C(=O)N[C@H](C(=O)N[C@@H](CCC(=O)O)C(=O)N[C@@H](Cc1c[nH]c2ccccc12)C(=O)N[C@@H](CC(C)C)C(=O)N[C@@H](CCCN=C(N)N)C(=O)N[C@@H](CCCCN)C(=O)N[C@@H](CCCCN)C(=O)N[C@@H](CC(C)C)C(=O)N[C@@H](CCC(N)=O)C(=O)N[C@@H](CC(=O)O)C(=O)N[C@H](C(=O)N[C@@H](Cc1cnc[nH]1)C(=O)N[C@@H](CC(N)=O)C(=O)N[C@@H](Cc1ccccc1)C(=O)O)C(C)C)C(C)C [pTH (1-34)],% inhibition,0.0%
